# In patent US20220039383A1, “Use of the Succinate Dehydrogenase Inhibitor Fluopyram for Controlling Claviceps Purpurea and Reducing Sclerotia in Cereals” (Bayer Aktiengesellschaft, priority 2018, published 2022):
# Legend:
# [1] = system: spring wheat variety CTC Utmost; test: Field test plot 2017, Canada: yield of spring wheat treated against Claviceps purpurea; format: in vivo; conditions: EC 150 g/l, 1.333 L/HA, 200 g/ha, untreated = 100
# Description: (§1) In Canada, in 2017, a test plot was conducted with the spring wheat variety CTC Utmost. Fluopyram as well as market standards were applied according to table 1 on July 7th between BBCH stage59 and 61 (. Assessment of sclerotia was done in fall 2017 96 days post application.
# Claviceps purpurea = test: Field test plot 2017, Canada: foliar application, assessment of sclerotia (ergot bodies) in spring wheat CTC Utmost; format: in vivo; conditions: EC 150 g/l, 1.333 L/HA, 200 g/ha, applied BBCH 59-61, 96 days post application
# Description: as §1
structure (smiles),measurement,setting,value
"O=C(NCCc1ncc(C(F)(F)F)cc1Cl)c1ccccc1C(F)(F)F [Fluopyram, N-{[3-chloro-5-(trifluoromethyl)-2-pyridinyl]ethyl}-2-trifluoromethylbenzamide]",% yield compared to Untreated,[1],109.85%
same,Number of Ergot bodies per kg seed,Claviceps purpurea,5 per kg seed
